Values quoted from earlier work, collected in patent US20230210112A1, “METHOD FOR GROWING PLANTS” (Taminco BV, priority 2020, published 2023).

Legend:
[1] = test system: pests; settings: in vivo
[2] = test system: cauliflower seedlings; settings: 20 mM BABA
[3] = test system: Tomato plants; settings: treated tomato seedlings

Reduction in growth of cauliflower seedlings [2] | Concentration at which root growth repression was observed (as low as) [3] | SMILES | Effect on plant growth or development (in words) [1] | Resistance-inducing activity (in words) [1]
– | – | N[C@@H](CO)CC(=O)O [(R)-beta-homoserine] | without affecting plant growth or development | strong resistance-inducing activity
14.7% | 500 µM | CC(N)CC(=O)O (stereo not drawn) [BABA, beta-aminobutyric acid] | – | –
– | 250 µM | CC/C=C\C[C@H]1C(=O)CC[C@@H]1CC(=O)O [JA, jasmonic acid] | – | –
